Measured values as given in patent publication US10294202B2, “Pyrrolidinones as herbicides” (FMC Corporation, priority 2013, dated 2019).

Columns and labels:
[1] = system: kochia; assay: Test A pre-/postemergence herbicide test; format: in vivo, Kochia scoparia; settings: for Plant response rating, Kochia: 125 g ai/ha
How it was run: (§1)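 Greenhouse pot test with pre- and postemergence application of surfactant-containing solvent formulations. Postemergence plants were 2–10 cm, one- to two-leaf stage. Response scored visually after ~10 days, 0 (no effect) to 100 (complete control).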

[2] = system: sedge, umbrella; assay: Test B flooded paddy test; format: in vivo, Cyperus difformis; settings: 1000 g ai/ha, Flood; scale of 0 to 100 where 0 is no effect and 100 is complete control
How it was run: (§2)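 In-water application to pots flooded 3 cm deep, plants at 2-leaf stage. Held in greenhouse 13–15 days at constant flood depth. Scored 0–100 by eye against controls.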

[3] = system: barnyardgrass; assay: Test B flooded paddy test; format: in vivo, Echinochloa crus-galli; settings: 1000 g ai/ha, Flood; scale of 0 to 100 where 0 is no effect and 100 is complete control
How it was run: as §2

[4] = system: barnyardgrass; assay: Test A pre-/postemergence herbicide test; format: in vivo, Echinochloa crus-galli
How it was run: as §1

[5] = system: galium; assay: Test A postemergence herbicide test; format: in vivo, Galium aparine; settings: 125 g ai/ha, visual rating on 0 to 100 scale (0 no effect, 100 complete control), approx. 10 days
How it was run: (§3)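 Injury was rated visually about 10 days after treatment on a 0 (no effect) to 100 (complete control) scale, compared with untreated plants. Test chemicals were sprayed postemergence onto greenhouse plants 2–10 cm high at one to two leaves, grown in a loam–sand blend.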

[6] = system: rice; assay: Test B flooded paddy test; format: in vivo, Oryza sativa; settings: 1000 g ai/ha, Flood; scale of 0 to 100 where 0 is no effect and 100 is complete control
How it was run: as §2

[7] = system: ducksalad; assay: Test C flooded paddy test; format: in vivo, Heteranthera limosa; settings: Flood
How it was run: (§4)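 Ratings reflect visual comparison with controls on a 0–100 scale, where 100 is complete control. Compound is dosed into standing paddy water 3 cm deep over 2-leaf-stage plants, kept in the greenhouse 13 to 15 days.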

[8] = system: giant foxtail; assay: Test A pre-/postemergence herbicide test; format: in vivo, Setaria faberii
How it was run: as §1

[9] = system: ragweed; assay: Test A pre-/postemergence herbicide test; format: in vivo, Ambrosia elatior; settings: for Plant response rating, Ragweed: 125 g ai/ha
How it was run: as §1

[10] = system: wheat; assay: Test A pre-/postemergence herbicide test; format: in vivo, Triticum aestivum; settings: Postemergence, 125 g ai/ha; visual rating on 0 to 100 scale (0 no effect, 100 complete control), approx. 10 days
How it was run: as §1

[11] = system: rice; assay: Test C flooded paddy test; format: in vivo, Oryza sativa; settings: Flood
How it was run: as §4

[12] = system: pigweed; assay: Test A pre-/postemergence herbicide test; format: in vivo, Amaranthus retroflexus; settings: for Plant response rating, Pigweed: 125 g ai/ha
How it was run: as §1

[13] = system: barnyardgrass; assay: Test C flooded paddy test; format: in vivo, Echinochloa crus-galli; settings: Flood
How it was run: as §4

[14] = system: ducksalad; assay: Test B flooded paddy test; format: in vivo, Heteranthera limosa; settings: 1000 g ai/ha, Flood; scale of 0 to 100 where 0 is no effect and 100 is complete control
How it was run: as §2

[15] = system: sedge, umbrella; assay: Test C flooded paddy test; format: in vivo, Cyperus difformis; settings: Flood
How it was run: as §4

[16] = system: ryegrass, Italian; assay: Test A pre-/postemergence herbicide test; format: in vivo, Lolium multiflorum; settings: for Plant response rating, Ryegrass, Italian: 125 g ai/ha
How it was run: as §1

[17] = system: corn; assay: Test A pre-/postemergence herbicide test; format: in vivo, Zea mays; settings: Postemergence
How it was run: as §1

[18] = system: blackgrass; assay: Test A postemergence herbicide test; format: in vivo, Alopecurus myosuroides
How it was run: as §3

[19] = system: waterhemp (AMATA); assay: Test H preemergence mixture test (Colby); format: in vivo, Amaranthus rudis; settings: applied alone, 21 d, mean of three replicates, scale 0-100
From the text: (§5) Colby's Equation was used to determine the herbicidal effects expected from the mixtures. Colby's Equation (Colby, S. R. “Calculating Synergistic and Antagonistic Responses of Herbicide Combinations,” Weeds, 15(1), pp 20-22 (1967)) calculates the expected additive effect of herbicidal mixtures and for two active ingredients is of the form: Pa+b=Pa+Pb−(PaPb/100)
(§6) where • Pa+b is the percentage effect of the mixture expected from additive contribution of the individual components: • Pa is the observed percentage effect of the first active ingredient at the same use rate as in the mixture, and • Pb is the observed percentage effect of the second active ingredient at the same use rate as in the mixture. In the following Tables, rates are shown in grams of active ingredient per hectare (g a.i./ha); “Obsd.” is the observed effect. “Exp.” is the expected effect calculated from Colby's Equation.
(§7) This test evaluated the effect of mixtures of compound 80 with several commercial herbicides on four plant species. Seeds of plant species selected from corn (ZEAMD, Zea mays), soybean (GLXMA, Glycine max), waterhemp (common waterhemp, AMATA, Amaranthus rudis), and giant foxtail (SETFA, Setaria faberii) were planted into a silt loam soil and treated preemergence with test chemicals formulated in a non-phytotoxic solvent mixture which included a surfactant and applied using a volume of 281 L/ha. Each treatment was replicated three times. Treated plants and controls were maintained in a greenhouse using supplemental lighting to maintain a photoperiod of about 16 h; daytime and nighttime temperatures were about 24-30° C. and 19-21° C., respectively. Nutrients were applied using a balanced fertilizer applied through the watering system. At 21 d after treatment, all species were compared to controls and visually evaluated. Plant response ratings were calculated as the means of the three replicates, are summarized in Tables H1 through H5, and are based on a scale of 0 to 100 where 0 is no effect and 100 is complete control. A dash (-) response means no test result. The Expected (Exp.) results were calculated using Colby's Equation as described for Test G above.

[20] = system: giant foxtail (SETFA); assay: Test H preemergence mixture test (Colby); format: in vivo, Setaria faberii; settings: applied alone, 21 d, mean of three replicates, scale 0-100
From the text: as §5, §6, §7

[21] = system: corn (ZEAMD); assay: Test H preemergence mixture test (Colby); format: in vivo, Zea mays; settings: applied alone, 21 d, mean of three replicates, scale 0-100
From the text: as §5, §6, §7

[22] = system: soybean (GLXMA); assay: Test H preemergence mixture test (Colby); format: in vivo, Glycine max; settings: applied alone, 21 d, mean of three replicates, scale 0-100
From the text: as §5, §6, §7

[23] = Postemergence, visual rating on 0 to 100 scale (0 no effect, 100 complete control), approx. 10 days
[24] = Preemergence, 0 to 100 scale where 0 is no effect and 100 is complete control
[25] = Preemergence, 500 g ai/ha, visual rating on 0 to 100 scale (0 no effect, 100 complete control)
[26] = Postemergence, 125 g ai/ha, visual rating on 0 to 100 scale (0 no effect, 100 complete control), approx. 10 days
[27] = Postemergence, 500 g ai/ha, 0 to 100 scale (0 no effect, 100 complete control)
[28] = Preemergence, 125 g ai/ha, 0 to 100 scale where 0 is no effect and 100 is complete control
[29] = 125 g ai/ha, scale of 0 to 100 where 0 is no effect and 100 is complete control, 13 to 15 days
[30] = 250 g ai/ha, scale of 0 to 100 where 0 is no effect and 100 is complete control, 13 to 15 days
[31] = 125 g ai/ha, visual rating on 0 to 100 scale (0 no effect, 100 complete control), approx. 10 days
[32] = 500 g ai/ha, 0 to 100 scale (0 no effect, 100 complete control)

Compound: O=C1NCC(c2cccc(C(F)(F)F)c2)C1C(=O)Nc1cccc(Cl)c1F (centres unmarked) [Compound 344]
- Plant response rating, Kochia [1, 23]: 0
- Plant response rating, Kochia [1, 24]: 0
- Kochia plant response rating [1, 25]: 0
- Plant response rating, Sedge, Umbrella [2]: 0
- Plant response rating, Barnyardgrass [3]: 85
- Plant response rating, Barnyardgrass [4, 26]: 60
- Plant response rating, Barnyardgrass [4, 27]: 90
- Plant response rating, Barnyardgrass [4, 28]: 50
- Barnyardgrass plant response rating [4, 25]: 90
- Plant response rating, Galium [5]: 0
- Plant response rating, Rice [6]: 10
- Plant response rating, Ducksalad [7, 29]: 50
- Plant response rating, Ducksalad [7, 30]: 60
- Plant response rating, Ducksalad ([7]; 500 g ai/ha, scale 0 to 100): 65
- Plant response rating, Ducksalad ([7]; 1000 g ai/ha, scale 0 to 100): 85
- Plant response rating, Foxtail, Giant [8, 26]: 80
- Plant response rating, Foxtail, Giant [8, 27]: 90
- Plant response rating, Foxtail, Giant [8, 28]: 80
- Foxtail, Giant plant response rating [8, 25]: 90
- Plant response rating, Ragweed [9, 23]: 0
- Plant response rating, Ragweed [9, 24]: 0
- Ragweed plant response rating [9, 25]: 0
- Plant response rating, Wheat [10]: 0
- Plant response rating, Rice [11, 29]: 0
- Plant response rating, Rice [11, 30]: 0
- Plant response rating, Rice ([11]; 500 g ai/ha, scale 0 to 100): 0
- Plant response rating, Rice ([11]; 1000 g ai/ha, scale 0 to 100): 0
- Plant response rating, Pigweed [12, 23]: 0
- Plant response rating, Pigweed [12, 24]: 0
- Pigweed plant response rating [12, 25]: 0
- Plant response rating, Barnyardgrass [13, 29]: 0
- Plant response rating, Barnyardgrass [13, 30]: 35
- Plant response rating, Barnyardgrass ([13]; 500 g ai/ha, scale 0 to 100): 40
- Plant response rating, Barnyardgrass ([13]; 1000 g ai/ha, scale 0 to 100): 55
- Plant response rating, Ducksalad [14]: 90
- Plant response rating, Sedge, Umbrella [15, 29]: 0
- Plant response rating, Sedge, Umbrella [15, 30]: 0
- Plant response rating, Sedge, Umbrella ([15]; 500 g ai/ha, scale 0 to 100): 0
- Plant response rating, Sedge, Umbrella ([15]; 1000 g ai/ha, scale 0 to 100): 0
- Plant response rating, Ryegrass, Italian [16, 23]: 0
- Plant response rating, Ryegrass, Italian [16, 24]: 0
- Ryegrass, Italian plant response rating [16, 25]: 30
- Plant response rating, Corn [17, 31]: 0
- Plant response rating, Corn [17, 32]: 0
- Plant response rating, Blackgrass [18, 31]: 0
- Plant response rating, Blackgrass [18, 32]: 0

Compound: CCc1cccc(C)c1N(C(=O)CCl)[C@@H](C)COC [S-metolachlor]
- AMATA Obsd. ([19]; 31 g a.i./ha): 0
- AMATA Obsd. ([19]; 125 g a.i./ha): 85
- SETFA Obsd. ([20]; 31 g a.i./ha): 73
- SETFA Obsd. ([20]; 125 g a.i./ha): 99
- ZEAMD Obsd. ([21]; 31 g a.i./ha): 13
- ZEAMD Obsd. ([21]; 125 g a.i./ha): 20
- GLXMA Obsd. ([22]; 31 g a.i./ha): 18
- GLXMA Obsd. ([22]; 125 g a.i./ha): 15

Compound: CC(C)N(C)S(=O)(=O)NC(=O)c1cc(-n2c(=O)cc(C(F)(F)F)n(C)c2=O)c(F)cc1Cl [Saflufenacil]
- AMATA Obsd. ([19]; 1 g a.i./ha): 0
- AMATA Obsd. ([19]; 31 g a.i./ha): 83
- SETFA Obsd. ([20]; 1 g a.i./ha): 0
- SETFA Obsd. ([20]; 31 g a.i./ha): 23
- ZEAMD Obsd. ([21]; 1 g a.i./ha): 20
- ZEAMD Obsd. ([21]; 31 g a.i./ha): 0
- GLXMA Obsd. ([22]; 1 g a.i./ha): 0
- GLXMA Obsd. ([22]; 31 g a.i./ha): 13
